Where two headings read alike, the source gives them in different places.
What was measured:
[1] = tested on: primary cells of intestinal cancer; experiment: Effect of single additives in Basic Medium on proliferation of primary cells of intestinal cancer (cell count); type: cell-based, human; set-up: key: +: compared with the Basic Medium, the medium added with the additive(s) has the effect of promoting the proliferation of primary cells of intestinal cancer isolated from intestinal cancer tissue in at least two cases; −: the medium added with the additive(s) has the effect of inhibiting the proliferation of primary cells of intestinal cancer isolated from intestinal cancer tissue in at least one case; ∘: the medium added with the additive(s) has no significant effect on the proliferation of primary cells of intestinal cancer isolated from intestinal cancer tissue in at least two cases
Method: First, Basic Medium was prepared. The formulation of Basic Medium is: DMEM/F12 medium (purchased from Corning)+5 μM Y27632 (purchased from MCE)+5% (v/v) fetal bovine serum (purchased from Excell Bio)+100 μg/mL Primocin (purchased from InvivoGen, 0.2% (v/v), the concentration of commercial product is 50 mg/ml).
Different types of additives (see Table 1) were added to the Basic Medium to prepare the culture mediums for primary cells of intestinal cancer containing different components.
The culture mediums of different components as shown in Table 1 were added into a 48-well plate at a volume of 1 mL/well. Primary cells of intestinal cancer isolated from two cases of intestinal cancer tissues (numbered OE0042 and OE(E)003) according to the above step (2) were inoculated into the 48-well culture plate at a cell density of 3×10^4 cells/well, and were cultured at 37° C., under 5% CO2 concentration. After culturing for 7-10 days, when the cells grew to 85%, the culture medium was discarded, and 100 μL/well of 0.05% trypsin (purchased from Gibco) was used to rinse the cells once. After the trypsin was removed, 200 μL of 0.05% trypsin was added to each well. The plate was then placed in a 37° C., 5% CO2 incubator for 10 minutes, and the cells were observed under a microscope (CNOPTEC, BDS400), showing that the cells had completely digested. 300 μL of DMEM/F12 medium containing 10% serum (Excell Bio, FND500) was added to stop the digestion. 20 μL of the resultant was added into a cell counting plate (Countstar, specification: 50 pieces/box), and the total number of cells was counted with a cell counter (Countstar, IC1000). Specifically, Basic Medium without any additives was used as an experimental control, and the experimental results are shown in Table 1.

[2] = tested on: primary cells of intestinal cancer; experiment: Effect of different concentrations of factors in CA-1 medium on proliferation (ratio of cell number to Blank Control); type: cell-based, human
[3] = additive at the final concentration in Basic Medium, samples OE0042 and OE(E)003, 7-10 days, compared with Basic Medium
[4] = according to proliferation ratio vs Blank Control, FIGS. 2A-2J

Cc1cccc(-c2nn(C(=S)Nc3ccccc3)cc2-c2ccnc3ccccc23)n1 [A8301, reference compound]
Level of promoting cell proliferation [1, 3]: − | amount in culture medium, more preferably [2, 4]: 200 nM

Oc1ccc(-c2nc(-c3ccncc3)c(-c3ccc(F)cc3)[nH]2)cc1 [SB202190, reference compound]
Level of promoting cell proliferation [1, 3]: ∘

C[C@@H](N)[C@H]1CC[C@H](C(=O)Nc2ccncc2)CC1 [Y-27632, reference compound]
amount in culture medium, even more preferably [2, 4]: 5 µM | amount in culture medium, preferably [2, 4]: 2.5 to 40 µM

NC(=O)CC[C@H](N)C(=O)O [glutamine, reference compound]
Level of promoting cell proliferation [1, 3]: −

C[C@]12CCC(=O)C=C1CC[C@@H]1[C@@H]2[C@@H](O)C[C@@]2(C)[C@H]1CC[C@]2(O)C(=O)CO [hydrocortisone, reference compound]
Level of promoting cell proliferation [1, 3]: ∘

NC(=O)c1cccnc1 [nicotinamide, reference compound]
Level of promoting cell proliferation [1, 3]: + | amount in the culture medium, even more preferably [2, 4]: 4 mM | amount in the culture medium, more preferably [2, 4]: 4 to 8 mM | amount in the culture medium, preferably [2, 4]: 2 to 8 mM

CCCCC[C@H](O)/C=C/[C@H]1[C@H](O)CC(=O)[C@@H]1C/C=C\CCCC(=O)O [prostaglandin E2, reference compound]
Level of promoting cell proliferation [1, 3]: −

TGF-β1: medium additive from R&D
Level of promoting cell proliferation [1, 3]: −

basic fibroblast growth factor: medium additive, growth factor from R&D
Level of promoting cell proliferation [1, 3]: −

cholera toxin
Level of promoting cell proliferation [1]: + | amount in culture medium, even more preferably [2]: 5 ng/mL

epidermal growth factor: medium additive, growth factor from R&D (NSDSECPLSHDGYCLHDGVCMYIEALDKYACNCVVGYIGERCQYRDLKWWELR; Epidermal growth factor; UniProt P01133 971-1023, looked up)
Level of promoting cell proliferation [1, 3]: ∘

hepatocyte growth factor: medium additive, growth factor from Peprotech
Level of promoting cell proliferation [1, 3]: ∘

insulin-like growth factor-1: medium additive, growth factor from R&D
Level of promoting cell proliferation [1, 3]: + | amount in culture medium, more preferably [2, 4]: 45 ng/mL | amount in culture medium, preferably [2, 4]: 5 to 405 ng/mL

insulin: medium additive from Peprotech
Level of promoting cell proliferation [1, 3]: + | amount in culture medium, even more preferably [2, 4]: 2000 ng/mL | amount in culture medium, more preferably [2, 4]: 1000 to 2000 ng/mL | amount in culture medium, preferably [2, 4]: 500 to 4000 ng/mL

Source: patent US12590951B2, “Culture medium and culture method for primary cells of intestinal cancer” (PRECEDO PHARMACEUTICALS CO., LTD, priority 2021, dated 2026)
